Test results from US20060276464A1, “Diarylsulfone sulfonamides and use thereof” (Wyeth, priority 2005, published 2006).
Like-named read-outs stand apart in the source and are kept apart here.

Biological target: T1, SFRP-1 (Homo sapiens, UniProt Q8N474)
T1 sequence (Q8N474 32-314): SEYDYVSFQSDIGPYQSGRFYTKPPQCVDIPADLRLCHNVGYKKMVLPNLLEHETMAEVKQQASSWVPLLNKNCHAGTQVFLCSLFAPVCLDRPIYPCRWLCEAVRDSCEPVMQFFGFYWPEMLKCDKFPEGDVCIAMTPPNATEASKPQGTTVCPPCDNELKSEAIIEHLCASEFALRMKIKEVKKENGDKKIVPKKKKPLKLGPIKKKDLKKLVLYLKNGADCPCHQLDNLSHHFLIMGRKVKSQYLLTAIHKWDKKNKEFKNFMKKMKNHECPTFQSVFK
Assay: Cell-based assay for in vitro measurement of SFRP-1/SARP2 antagonist activity (U2OS cells co-transfected with 16x TCF-tk-Luciferase reporter, Wnt and hSFRP-1);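 also: U2OS cells co-transfected with a TCF-tk luciferase reporter, a Wnt vector, hSFRP-1 or empty vector and CMV-βgal, luciferase luminescence read in cell lysates alongside βgal activity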
Conditions: for fold induction at 30 µM / fold induction at 15 µM: U2OS

[1] = read-out: Fold Induction with SFRP-1, Conc 30 μM, with SFRP-1, fold induction over SFRP-1 control, single dose
[2] = read-out: Fold Induction without SFRP-1, Conc 30 μM, without SFRP-1, single dose
[3] = Conc 30 μM, with SFRP-1, fold induction over SFRP-1 control, single dose
[4] = read-out: Fold Induction with SFRP-1, Conc 15 μM, with SFRP-1, fold induction over SFRP-1 control, single dose
[5] = read-out: Fold Induction without SFRP-1, Conc 15 μM, without SFRP-1, single dose

Compound	fold induction at 30 µM [1]	fold induction at 30 µM [2]	Fold Induction with SFRP-1 [3]	Fold Induction without SFRP-1 (Conc 30 μM, without SFRP-1, single dose)	fold induction at 15 µM [4]	fold induction at 15 µM [5]
CCOc1cc(CCNS(=O)(=O)c2cc(S(=O)(=O)c3ccccc3)ccc2C)ccc1OC [Example 54, N-[2-(3-ethoxy-4-methoxyphenyl)ethyl]-2-methyl-5-(phenylsulfonyl)benzenesulfonamide]	3.8	1.1	3.6 fold	–	–	–
CCOc1ccc(CCNS(=O)(=O)c2cc(S(=O)(=O)c3ccccc3)ccc2C)cc1OC [Example 55, N-[2-(4-ethoxy-3-methoxyphenyl)ethyl]-2-methyl-5-(phenylsulfonyl)benzenesulfonamide]	3.1	0.9	–	–	–	–
Cc1ccc(S(=O)(=O)c2ccc(Cl)cc2)cc1S(=O)(=O)NCCc1ccccc1Cl [Example 89, N-[2-(2-chlorophenyl)ethyl]-5-[(4-chlorophenyl)sulfonyl]-2-methylbenzenesulfonamide]	1.8	0.5	–	–	–	–
COc1ccc(CCNS(=O)(=O)c2cc(S(=O)(=O)c3ccc(Cl)cc3)ccc2C)cc1OC [Example 92, 5-[(4-chlorophenyl)sulfonyl]-N-[2-(3,4-dimethoxyphenyl)ethyl]-2-methylbenzenesulfonamide]	1	0.4	–	–	–	–
Cc1ccc(S(=O)(=O)c2ccc(C)c(S(=O)(=O)NCCc3ccccc3)c2)cc1 [Example 116, 2-methyl-5-[(4-methylphenyl)sulfonyl]-N-(2-phenylethyl)benzenesulfonamide]	0.9	0.4	–	–	–	–
Cc1ccc(S(=O)(=O)c2ccc(C)c(S(=O)(=O)NCCc3ccccc3Cl)c2)cc1 [Example 117, N-[2-(2-chlorophenyl)ethyl]-2-methyl-5-[(4-methylphenyl)sulfonyl]benzenesulfonamide]	1	0.5	–	–	–	–
COc1ccccc1CCNS(=O)(=O)c1cc(S(=O)(=O)c2ccc(C)cc2)ccc1C [Example 118, N-[2-(2-methoxyphenyl)ethyl]-2-methyl-5-[(4-methylphenyl)sulfonyl]benzenesulfonamide]	1.3	0.5	–	–	–	–
COc1ccc(CCNS(=O)(=O)c2cc(S(=O)(=O)c3ccc(C)cc3)ccc2C)cc1OC [Example 120, N-[2-(3,4-dimethoxyphenyl)ethyl]-2-methyl-5-[(4-methylphenyl)sulfonyl]benzenesulfonamide]	1.2	0.5	–	–	–	–
Cc1ccc(S(=O)(=O)c2ccc(C)c(S(=O)(=O)NCCc3ccccc3F)c2)cc1 [Example 138, N-[2-(2-fluorophenyl)ethyl]-2-methyl-5-[(4-methylphenyl)sulfonyl]benzenesulfonamide]	1.1	0.5	–	–	2.7	0.9
CCc1ccc(S(=O)(=O)c2ccccc2)cc1S(=O)(=O)NCCc1ccc(OC)c(OC)c1 [Example 144, N-[2-(3,4-dimethoxyphenyl)ethyl]-2-ethyl-5-(phenylsulfonyl)benzenesulfonamide]	–	–	–	–	3	1.1
CCc1ccc(S(=O)(=O)c2ccccc2)cc1S(=O)(=O)NCCc1ccc(S(N)(=O)=O)cc1 [Example 145, N-{2-[4-(aminosulfonyl)phenyl]ethyl}-2-ethyl-5-(phenylsulfonyl)benzenesulfonamide]	–	–	–	–	2.2	1.2
CCc1ccc(S(=O)(=O)c2ccccc2)cc1S(=O)(=O)NCCc1ccccc1F [Example 147, 2-ethyl-N-[2-(2-fluorophenyl)ethyl]-5-(phenylsulfonyl)benzenesulfonamide]	–	–	–	–	3.2	1
CCOc1cc(CCNS(=O)(=O)c2cc(S(=O)(=O)c3ccccc3)ccc2CC)ccc1OC [Example 148, N-[2-(3-ethoxy-4-methoxyphenyl)ethyl]-2-ethyl-5-(phenylsulfonyl)benzenesulfonamide]	–	–	–	–	2.8	1.1

Next, values leading:

fold induction at 30 µM [1]	fold induction at 30 µM [2]	Fold Induction with SFRP-1 [3]	Fold Induction without SFRP-1 (Conc 30 μM, without SFRP-1, single dose)	fold induction at 15 µM [4]	fold induction at 15 µM [5]	Compound
1.4	0.7	–	–	–	–	Cc1ccc(S(=O)(=O)c2ccccc2)cc1S(=O)(=O)NCCc1cccc(F)c1 [Example 52, N-[2-(3-fluorophenyl)ethyl]-2-methyl-5-(phenylsulfonyl)benzenesulfonamide]
1	0.4	1.2 fold	0.6 fold	–	–	Cc1ccc(S(=O)(=O)c2ccccc2)cc1S(=O)(=O)NCCc1ccccc1F [Example 53, N-[2-(2-fluorophenyl)ethyl]-2-methyl-5-(phenylsulfonyl)benzenesulfonamide]
–	–	–	–	1.2	1.1	COc1cccc(CCNS(=O)(=O)c2cccc(S(=O)(=O)c3ccccc3)c2)c1 [Example 62, N-[2-(3-methoxyphenyl)ethyl]-3-(phenylsulfonyl)benzenesulfonamide]
–	–	–	–	1	0.7	CCOc1ccc(CCNS(=O)(=O)c2cccc(S(=O)(=O)c3ccccc3)c2)cc1 [Example 80, N-[2-(4-ethoxyphenyl)ethyl]-3-(phenylsulfonyl)benzenesulfonamide]
–	–	–	–	1	0.9	O=S(=O)(NCCc1cccc(F)c1)c1cccc(S(=O)(=O)c2ccccc2)c1 [Example 81, N-[2-(3-fluorophenyl)ethyl]-3-(phenylsulfonyl)benzenesulfonamide]
–	–	–	–	1.2	1	O=S(=O)(NCCc1ccccc1F)c1cccc(S(=O)(=O)c2ccccc2)c1 [Example 82, N-[2-(2-fluorophenyl)ethyl]-3-(phenylsulfonyl)benzenesulfonamide]
–	–	–	–	1.3	1.2	CCOc1cc(CCNS(=O)(=O)c2cccc(S(=O)(=O)c3ccccc3)c2)ccc1OC [Example 83, N-[2-(3-ethoxy-4-methoxyphenyl)ethyl]-3-(phenylsulfonyl)benzenesulfonamide]
0.2	0.3	–	–	–	–	COc1cccc(CCNS(=O)(=O)c2cc(S(=O)(=O)c3ccc(C)cc3)ccc2C)c1 [Example 119, N-[2-(3-methoxyphenyl)ethyl]-2-methyl-5-[(4-methylphenyl)sulfonyl]benzenesulfonamide]
–	–	–	–	3.3	1	CCc1ccc(S(=O)(=O)c2ccccc2)cc1S(=O)(=O)NCCc1ccccc1 [Example 141, 2-ethyl-N-(2-phenylethyl)-5-(phenylsulfonyl)benzenesulfonamide]
–	–	–	–	3.2	1.3	CCc1ccc(S(=O)(=O)c2ccccc2)cc1S(=O)(=O)NCCc1ccccc1OC [Example 142, 2-ethyl-N-[2-(2-methoxyphenyl)ethyl]-5-(phenylsulfonyl)benzenesulfonamide]
–	–	–	–	3.3	0.7	CCc1ccc(S(=O)(=O)c2ccccc2)cc1S(=O)(=O)NCCc1cccc(OC)c1 [Example 143, 2-ethyl-N-[2-(3-methoxyphenyl)ethyl]-5-(phenylsulfonyl)benzenesulfonamide]
–	–	–	–	2.1	1.3	CCc1ccc(S(=O)(=O)c2ccccc2)cc1S(=O)(=O)NCCc1cccc(F)c1 [Example 146, 2-ethyl-N-[2-(3-fluorophenyl)ethyl]-5-(phenylsulfonyl)benzenesulfonamide]
